Reference: article PMC6979384, “Characterization of the plant homeodomain (PHD) reader family for their histone tail interactions” (Epigenetics & Chromatin, 2020)

How the values were obtained:
Assay in all cases: Histone peptide microarray
Type in all cases: binding, human
Details in all cases: sheet "Array Heatmap"; GST-tagged reader; histone peptide array, total n = 4
AIRE (PP) = tested on: AIRE (PP)
Procedure, shortened: (§1)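 A peptide microarray holding 293 synthetic histone peptides with individual or combinatorial modifications was probed with each GST-PHD protein at 0.5 μM. Values represent mean intensity (±SD) from four replicates.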

BAZ2B = tested on: BAZ2B
Procedure, shortened: as §1

BPTF (PB) = tested on: BPTF (PB)
Procedure, shortened: as §1

CHD4 (PPCC) = tested on: CHD4 (PPCC)
Procedure, shortened: as §1

CHD5 (PCC) = tested on: CHD5 (PCC)
Procedure, shortened: as §1

CHD5 (PPCC) = tested on: CHD5 (PPCC)
Procedure, shortened: as §1

DIDO1 = tested on: DIDO1
Procedure, shortened: as §1

DPF2 (PPC2W2) = tested on: DPF2 (PPC2W2)
Procedure, shortened: as §1

ING1 = tested on: ING1
Procedure, shortened: as §1

ING2 = tested on: ING2
Procedure, shortened: as §1

ING3 = tested on: ING3
Procedure, shortened: as §1

ING4 = tested on: ING4
Procedure, shortened: as §1

ING5 = tested on: ING5
Procedure, shortened: as §1

KDM4C (TTP) = tested on: KDM4C (TTP)
Procedure, shortened: as §1

KDM5A (1) = tested on: KDM5A (1)
Procedure, shortened: as §1

KDM5A (3) = tested on: KDM5A (3)
Procedure, shortened: as §1

KDM5B (1) = tested on: KDM5B (1)
Procedure, shortened: as §1

KDM5B (3) = tested on: KDM5B (3)
Procedure, shortened: as §1

KDM7A = tested on: KDM7A
Procedure, shortened: as §1

MLL5 = tested on: MLL5
Procedure, shortened: as §1

MORC3 (CW) = tested on: MORC3 (CW)
Procedure, shortened: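 Binding read as mean relative signal from 4 replicates; microarray held 293 synthetic histone peptides with single or combinatorial PTMs. Each GST-tagged PHD reader was applied at 0.5 μM using the optimized Petell protocol.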

PHF13 = tested on: PHF13
Procedure, shortened: as §1

PHF21A = tested on: PHF21A
Procedure, shortened: as §1

PHF23 = tested on: PHF23
Procedure, shortened: as §1

PHF2 = tested on: PHF2
Procedure, shortened: as §1

PHF8 = tested on: PHF8
Procedure, shortened: as §1

PHRF1 (RP) = tested on: PHRF1 (RP)
Procedure, shortened: as §1

RAG2 = tested on: RAG2
Procedure, shortened: as §1

SP140L = tested on: SP140L
Procedure, shortened: as §1

TAF3 = tested on: TAF3
Procedure, shortened: as §1

TRIM66 (PB) = tested on: TRIM66 (PB)
Procedure, shortened: as §1

Q: For H3K18ac (1-25): H3 1-25, which “Array Heatmap signal, AIRE (PP)” value (AIRE (PP)) is on record?
A: 0.502

Q: What about the “Array Heatmap signal, BAZ2B” value (BAZ2B) of the same substance?
A: 0.5309

Q: What about the “Array Heatmap signal, BPTF (PB)” value (BPTF (PB)) of the same substance?
A: 0.4168

Q: And the “Array Heatmap signal, CHD4 (PPCC)” value (CHD4 (PPCC))?
A: 0.699

Q: What about the “Array Heatmap signal, CHD5 (PCC)” value (CHD5 (PCC)) of the same substance?
A: 0.844

Q: What about the “Array Heatmap signal, CHD5 (PPCC)” value (CHD5 (PPCC)) of the same substance?
A: 0.6616

Q: What about the “Array Heatmap signal, DIDO1” value (DIDO1) of the same substance?
A: 0.8263

Q: What about the “Array Heatmap signal, DPF2 (PPC2W2)” value (DPF2 (PPC2W2)) of the same substance?
A: 0.8287

Q: What about the “Array Heatmap signal, ING1” value (ING1) of the same substance?
A: 0.6071

Q: What about the “Array Heatmap signal, ING2” value (ING2) of the same substance?
A: 0.65

Q: What about the “Array Heatmap signal, ING3” value (ING3) of the same substance?
A: 0.5765

Q: And the “Array Heatmap signal, ING4” value (ING4)?
A: 0.5434

Q: What about the “Array Heatmap signal, ING5” value (ING5) of the same substance?
A: 0.4305

Q: And the “Array Heatmap signal, KDM4C (TTP)” value (KDM4C (TTP))?
A: 0.575

Q: What about the “Array Heatmap signal, KDM5A (1)” value (KDM5A (1)) of the same substance?
A: 0.5632

Q: And the “Array Heatmap signal, KDM5A (3)” value (KDM5A (3))?
A: 0.7204

Q: What about the “Array Heatmap signal, KDM5B (1)” value (KDM5B (1)) of the same substance?
A: 0.7576

Q: What about the “Array Heatmap signal, KDM5B (3)” value (KDM5B (3)) of the same substance?
A: 0.5812

Q: And the “Array Heatmap signal, KDM7A” value (KDM7A)?
A: 0.4088

Q: And the “Array Heatmap signal, MLL5” value (MLL5)?
A: 0.6155

Q: And the “Array Heatmap signal, MORC3 (CW)” value (MORC3 (CW))?
A: 0.6771

Q: And the “Array Heatmap signal, PHF13” value (PHF13)?
A: 0.7117

Q: And the “Array Heatmap signal, PHF21A” value (PHF21A)?
A: 0.5491

Q: What about the “Array Heatmap signal, PHF23” value (PHF23) of the same substance?
A: 0.5923

Q: What about the “Array Heatmap signal, PHF2” value (PHF2) of the same substance?
A: 0.6849

Q: What about the “Array Heatmap signal, PHF8” value (PHF8) of the same substance?
A: 0.4195

Q: What about the “Array Heatmap signal, PHRF1 (RP)” value (PHRF1 (RP)) of the same substance?
A: 0.8108

Q: What about the “Array Heatmap signal, RAG2” value (RAG2) of the same substance?
A: 0.3351

Q: What about the “Array Heatmap signal, SP140L” value (SP140L) of the same substance?
A: 0.3993

Q: What about the “Array Heatmap signal, TAF3” value (TAF3) of the same substance?
A: 0.3651

Q: What about the “Array Heatmap signal, TRIM66 (PB)” value (TRIM66 (PB)) of the same substance?
A: 0.788
